According to US8420657B2 (Novartis AG, priority 2008, dated 2013):

system: JAK1/JAK2-dependent nuclear translocation of STAT1-GFP in HT1080 fibrosarcoma cells; assay: STAT1 nuclear translocation assay (Cellomics), IFN-γ stimulated HT1080 STAT1-GFP cells; type: cell-based; details: Homo sapiens, HT-1080, STAT1 translocation pathway
In short: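 IC50 derived from percent nuclear STAT1-GFP translocation, computed from nuclear minus cytoplasmic GFP intensity against untreated baseline and DMSO-stimulated control. Stable HT1080 STAT1-GFP cells received compound (0.003–10 μM, 0.1% DMSO) 30 min ahead of a 2 h 100 ng/ml IFN-γ stimulus, then fixation and Hoechst nuclear masking.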

| SMILES | IC50 |
| --- | --- |
| Cc1ccc(Nc2ncc3ccn(-c4ccc(C(=O)N5CCOCC5)cc4)c3n2)cn1 [Example 238, {4-[2-(6-Methyl-pyridin-3-ylamino)-pyrrolo[2,3-d]pyrimidin-7-yl]-phenyl}-morpholin-4-yl-methanone] | 0.785 µM |
| COCc1ccc(Nc2ncc3ccn(-c4cc(F)c(CN5CCS(=O)(=O)CC5)c(F)c4)c3n2)cc1 [Example 184, {7-[4-(1,1-Dioxido-thiomorpholin-4-ylmethyl)-3,5-difluoro-phenyl]-7H-pyrrolo[2,3-d]pyrimidin-2-yl}-(4-methoxymethyl-phenyl)-amine] | 0.035 µM |
| COc1cc(Nc2ncc3ccn(-c4ccc(C(=O)N5CCOCC5)c(F)c4)c3n2)ccc1F [Example 151, {2-Fluoro-4-[2-(4-fluoro-3-methoxy-phenylamino)-pyrrolo[2,3-d]pyrimidin-7-yl]-phenyl}-morpholin-4-yl-methanone] | 0.229 µM |
| COCc1c(F)cc(-n2ccc3cnc(Nc4ccc(N5CCN(C)CC5)nc4)nc32)cc1F [Example 446, [7-(3,5-Difluoro-4-methoxymethyl-phenyl)-7H-pyrrolo[2,3-d]pyrimidin-2-yl]-[6-(4-methyl-piperazin-1-yl)-pyridin-3-yl]-amine] | 0.05 µM |
| Cc1ccc(Nc2ncc3ccn(-c4ccc(C(=O)N5CCN(CCO)CC5)cc4)c3n2)cc1C [Example 300, {4-[2-(3,4-Dimethyl-phenylamino)-pyrrolo[2,3-d]pyrimidin-7-yl]-phenyl}-[4-(2-hydroxy-ethyl)-piperazin-1-yl]-methanone] | 2.03 µM |
| CC(C)Oc1ccc(Nc2ncc3ccn(-c4ccc(C#N)cc4)c3n2)cc1 [Example 96, 4-[2-(4-Isopropoxy-phenylamino)-pyrrolo[2,3-d]pyrimidin-7-yl]-benzonitrile] | 26.2 µM |
| Cn1cc(Nc2ncc3ccn(-c4ccc(CC(=O)N5CCOCC5)cc4)c3n2)cn1 [Example 301, 2-{4-[2-(1-Methyl-1H-pyrazol-4-ylamino)-pyrrolo[2,3-d]pyrimidin-7-yl]-phenyl}-1-morpholin-4-yl-ethanone] | 0.05 µM |
| Cc1cc(Nc2ncc3ccn(-c4ccc(C(=O)N5CCOCC5)c(F)c4)c3n2)nn1C [Example 311, {4-[2-(1,5-Dimethyl-1H-pyrazol-3-ylamino)-pyrrolo[2,3-d]pyrimidin-7-yl]-2-fluoro-phenyl}-morpholin-4-yl-methanone] | 1.4 µM |
| Cc1ccc(Nc2ncc3ccn(-c4cc(F)c(CN5CCOCC5)c(F)c4)c3n2)cc1CN1CCNCC1 [Example 332, [7-(3,5-Difluoro-4-morpholin-4-ylmethyl-phenyl)-7H-pyrrolo[2,3-d]pyrimidin-2-yl]-(4-methyl-3-piperazin-1-ylmethyl-phenyl)-amine] | 0.375 µM |
| CN1CCN(C(=O)c2cccc(Nc3ncc4ccn(-c5cc(F)c(CN6CCOCC6)c(F)c5)c4n3)c2)CC1 [Example 203, {3-[7-(3,5-Difluoro-4-morpholin-4-ylmethyl-phenyl)-7H-pyrrolo[2,3-d]pyrimidin-2-ylamino]-phenyl}-(4-methyl-piperazin-1-yl)-methanone] | 0.413 µM |

system: JAK2-dependent nuclear translocation of STAT5-GFP in U-2 OS osteosarcoma cells; assay: STAT5 nuclear translocation assay (Cellomics), rhEpo stimulated U-2 OS STAT5-GFP cells; type: cell-based; details: Homo sapiens, U2OS; STAT5 translocation pathway
In short: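 U-2 OS cells stably expressing STAT5a-GFP and EpoR pre-treated with compound (final 10 μM to 0.003 μM, 0.1% DMSO) for 30 min at 37° C., then stimulated 1 h with 5 U/ml rhEpo. Nuclear-cytoplasmic GFP differential quantified by automated imaging (≥1000 cells/well, Hoechst nuclear mask). IC50 from % translocation normalized to untreated and DMSO-stimulated controls.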

| SMILES | IC50 |
| --- | --- |
| CC1(C)NCCN(c2cc(Nc3ncc4ccn(-c5cc(F)c(CN6CCOCC6)c(F)c5)c4n3)ccn2)C1=O [Example 503, 1-{4-[7-(3,5-Difluoro-4-morpholin-4-ylmethyl-phenyl)-7H-pyrrolo[2,3-d]pyrimidin-2-ylamino]-pyridin-2-yl}-3,3-dimethyl-piperazin-2-one] | 0.0275 µM |
| Cc1ccc(Nc2ncc3ccn(-c4cc(F)c(CN5CCNC(=O)C5)c(F)c4)c3n2)cc1CN1CCNCC1 [Example 382, 4-{2,6-Difluoro-4-[2-(4-methyl-3-piperazin-1-ylmethyl-phenylamino)-pyrrolo[2,3-d]pyrimidin-7-yl]-benzyl}-piperazin-2-one] | 0.121 µM |
| COCc1c(F)cc(-n2ccc3cnc(Nc4ccc(N5CCN(C)CC5)nc4)nc32)cc1F [Example 446, [7-(3,5-Difluoro-4-methoxymethyl-phenyl)-7H-pyrrolo[2,3-d]pyrimidin-2-yl]-[6-(4-methyl-piperazin-1-yl)-pyridin-3-yl]-amine] | 0.0013 µM |
| Fc1cc(-n2ccc3cnc(Nc4ccnc(CN5CCNCC5)c4)nc32)cc(F)c1CN1CCOCC1 [Example 372, [7-(3,5-Difluoro-4-morpholin-4-ylmethyl-phenyl)-7H-pyrrolo[2,3-d]pyrimidin-2-yl]-(2-piperazin-1-ylmethyl-pyridin-4-yl)-amine] | 0.057 µM |
| Cc1ccc(Nc2ncc3ccn(-c4cc(F)c(CN5CCOCC5)c(F)c4)c3n2)cc1CN1CCNCC1 [Example 332, [7-(3,5-Difluoro-4-morpholin-4-ylmethyl-phenyl)-7H-pyrrolo[2,3-d]pyrimidin-2-yl]-(4-methyl-3-piperazin-1-ylmethyl-phenyl)-amine] | 0.073 µM |
| C[C@@H]1CN(c2ccc(Nc3ncc4ccn(-c5ccc(NS(C)(=O)=O)cc5)c4n3)cn2)C[C@H](C)N1 [Example 380, N-(4-{2-[6-(cis-3,5-Dimethyl-piperazin-1-yl)-pyridin-3-ylamino]-pyrrolo[2,3-d]pyrimidin-7-yl}-phenyl)-methanesulfonamide] | 0.046 µM |
| CN1CCN(c2ccc(Nc3ncc4ccn(-c5cc(F)c(CN6CCS(=O)(=O)CC6)c(F)c5)c4n3)nc2)CC1 [Example 440, {7-[4-(1,1-Dioxido-thiomorpholin-4-ylmethyl)-3,5-difluoro-phenyl]-7H-pyrrolo[2,3-d]pyrimidin-2-yl}-[5-(4-methyl-piperazin-1-yl)-pyridin-2-yl]-amine] | 0.061 µM |
